Here are results for two molecules from ChEMBL document CHEMBL4334438, “Discovery of novel glycogen synthase kinase-3α inhibitors: Structure-based virtual screening, preliminary SAR and biological evaluation for treatment of acute myeloid leukemia” (Eur J Med Chem, 2019).

For test [1], the target named is Ribosomal protein S6 kinase alpha-2 (Homo sapiens) (UniProt Q15349). Description: Inhibition of recombinant full length human Rsk3 assessed as residual activity at 1 uM using KKKNRTLSVA as substrate measured after 40 mins in presence of [gamma33P]ATP by scintillation counting method relative to control.
Test [2] addresses Phosphatidylinositol 3-kinase C2 domain-containing subunit gamma (Homo sapiens) (UniProt O75747). Description: Inhibition of recombinant human PI3KC2gamma (468 to 1203 residues) at 1 uM assessed as residual activity at 1 uM using phosphatidylinositol as substrate measured after 40 mins by HTRF assay. Background: TR-FRET usually uses a lanthanide donor and a delayed reading to cut background.

The target of test [3] is Serine/threonine-protein kinase NIM1 (Homo sapiens) (UniProt Q8IY84). Description: Inhibition of recombinant full length human NIM1 assessed as residual activity at 1 uM using KKKVSRSGLYRSPSMPENLNRPR as substrate measured after 40 mins in presence of [gamma33P]ATP by scintillation counting method relative to control.
Serine/threonine-protein kinase NIM1 (Homo sapiens), sequence (Q8IY84 whole entry, the tested form may be a part): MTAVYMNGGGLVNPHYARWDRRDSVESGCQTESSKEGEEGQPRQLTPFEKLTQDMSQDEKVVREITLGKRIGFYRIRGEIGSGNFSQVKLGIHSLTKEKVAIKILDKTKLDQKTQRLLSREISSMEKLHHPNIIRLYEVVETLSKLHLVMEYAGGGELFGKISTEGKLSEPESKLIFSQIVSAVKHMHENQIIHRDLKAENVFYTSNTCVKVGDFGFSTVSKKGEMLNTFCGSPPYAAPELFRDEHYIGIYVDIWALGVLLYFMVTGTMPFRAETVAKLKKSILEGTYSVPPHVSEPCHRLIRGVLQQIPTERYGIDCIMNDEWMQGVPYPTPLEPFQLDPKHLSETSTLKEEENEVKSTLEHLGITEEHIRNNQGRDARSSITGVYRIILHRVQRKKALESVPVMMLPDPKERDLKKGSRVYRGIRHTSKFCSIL
Test [4] addresses Fibroblast growth factor receptor 4 (Homo sapiens) (UniProt P22455). Description: Inhibition of recombinant human FGFR4 (442 to 755 residues) assessed as residual activity at 1 uM using poly(Glu, Tyr) 4:1 as substrate at 40 mins in presence of [gamma-33ATP] by scintillation counting based radiometry assay relative to control.
Test [5] has as its target Activin receptor type-1B (Homo sapiens) (UniProt P36896). Description: Inhibition of human ALK4 (150 to end residues) assessed as residual activity at 1 uM using casein as substrate incubated for 40 mins in presence of [gamma-33ATP] by scintillation counting based radiometry assay relative to control.
In test [6] the target is Myotonin-protein kinase (Homo sapiens) (UniProt Q09013). Description: Inhibition of recombinant human DMPK (1 to 549 residues) assessed as residual activity at 1 uM using KKSRGDYMTMQIG as substrate at 40 mins in presence of [gamma-33ATP] by scintillation counting based radiometry assay relative to control.
Myotonin-protein kinase (Homo sapiens), sequence (Q09013 whole entry, the tested form may be a part): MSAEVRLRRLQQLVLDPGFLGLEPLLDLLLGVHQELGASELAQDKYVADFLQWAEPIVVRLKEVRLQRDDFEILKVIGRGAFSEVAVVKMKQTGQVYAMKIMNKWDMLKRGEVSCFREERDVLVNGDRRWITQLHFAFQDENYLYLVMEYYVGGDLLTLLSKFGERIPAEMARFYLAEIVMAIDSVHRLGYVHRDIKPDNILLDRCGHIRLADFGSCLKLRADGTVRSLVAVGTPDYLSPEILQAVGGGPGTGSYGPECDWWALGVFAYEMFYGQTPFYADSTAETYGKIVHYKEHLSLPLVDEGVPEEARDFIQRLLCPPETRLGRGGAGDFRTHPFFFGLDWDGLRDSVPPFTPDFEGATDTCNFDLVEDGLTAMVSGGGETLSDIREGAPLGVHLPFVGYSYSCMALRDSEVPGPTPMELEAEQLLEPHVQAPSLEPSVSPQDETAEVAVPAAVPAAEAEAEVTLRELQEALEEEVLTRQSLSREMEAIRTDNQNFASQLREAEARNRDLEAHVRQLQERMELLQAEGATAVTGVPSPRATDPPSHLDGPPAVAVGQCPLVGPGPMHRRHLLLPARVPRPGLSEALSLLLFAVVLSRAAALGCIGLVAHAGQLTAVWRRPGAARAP
Test [7] deals with Serine/threonine-protein kinase 32C (Homo sapiens) (UniProt Q86UX6). Description: Inhibition of recombinant full-length human STK32C at 1 uM assessed as residual activity at 1 uM using casein as substrate measured after 120 mins in presence of [gamma33P]ATP by scintillation counting method relative to control.
Test [8] deals with 5'-AMP-activated protein kinase catalytic subunit alpha-2 (Homo sapiens) (UniProt P54646). Description: Inhibition of recombinant full length human AMPKalpha2 assessed as residual activity at 1 uM using AMARAASAAALAR as substrate incubated for 40 mins in presence of [gamma-33ATP] by scintillation counting based radiometry assay relative to control.
In test [9] the target is Mitogen-activated protein kinase kinase kinase 20 (Homo sapiens) (UniProt Q9NYL2). Description: Inhibition of recombinant full-length human ZAK at 1 uM assessed as residual activity at 1 uM using MBP as substrate measured after 40 mins in presence of [gamma33P]ATP by scintillation counting method relative to control.
Test [10] deals with Hepatocyte growth factor receptor (Homo sapiens), P08581 [D1228N]. Description: Inhibition of recombinant human MET A1209G/V1290L/D1246N mutant (974 to end residues) assessed as residual activity at 1 uM using KKKGQEEEYVFIE as substrate incubated for 40 mins in presence of [gamma-33ATP by scintillation counting based radiometry assay relative to control.
The target in test [11] is Serine/threonine-protein kinase 10 (Homo sapiens) (UniProt O94804). Description: Inhibition of recombinant human LOK (1 to 348 residues) assessed as residual activity at 1 uM using RLGRDKYKTLRQIRQ as substrate after 40 mins in presence of [gamma-33ATP] by scintillation counting based radiometry assay relative to control.
Serine/threonine-protein kinase 10 (Homo sapiens), sequence (O94804 whole entry, looked up, the tested form may be a part): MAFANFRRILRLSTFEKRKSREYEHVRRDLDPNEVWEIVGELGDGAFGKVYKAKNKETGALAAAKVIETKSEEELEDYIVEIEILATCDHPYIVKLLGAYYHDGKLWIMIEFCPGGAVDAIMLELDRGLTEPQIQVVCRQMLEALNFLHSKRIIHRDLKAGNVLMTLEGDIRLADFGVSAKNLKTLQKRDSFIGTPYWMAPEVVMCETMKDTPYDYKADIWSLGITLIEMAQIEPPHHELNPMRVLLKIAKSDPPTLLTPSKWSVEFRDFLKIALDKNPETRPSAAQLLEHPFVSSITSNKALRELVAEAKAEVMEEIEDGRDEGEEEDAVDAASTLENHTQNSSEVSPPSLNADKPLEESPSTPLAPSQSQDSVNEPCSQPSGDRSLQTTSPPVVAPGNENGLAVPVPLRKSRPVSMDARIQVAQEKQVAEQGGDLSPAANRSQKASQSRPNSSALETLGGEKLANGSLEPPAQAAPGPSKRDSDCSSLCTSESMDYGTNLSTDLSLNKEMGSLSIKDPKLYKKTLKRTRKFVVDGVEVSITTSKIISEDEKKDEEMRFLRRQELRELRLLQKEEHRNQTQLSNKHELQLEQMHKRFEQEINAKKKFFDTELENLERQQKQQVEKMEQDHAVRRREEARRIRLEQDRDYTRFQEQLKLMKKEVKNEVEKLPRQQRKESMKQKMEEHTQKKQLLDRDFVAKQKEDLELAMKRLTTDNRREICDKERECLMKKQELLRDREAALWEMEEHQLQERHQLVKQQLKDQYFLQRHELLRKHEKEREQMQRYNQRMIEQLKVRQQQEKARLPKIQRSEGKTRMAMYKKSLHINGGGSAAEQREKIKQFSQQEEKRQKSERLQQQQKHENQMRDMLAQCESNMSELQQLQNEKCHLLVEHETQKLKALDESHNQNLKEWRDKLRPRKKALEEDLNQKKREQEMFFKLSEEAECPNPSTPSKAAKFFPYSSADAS
For test [12], the target named is MAPK/MAK/MRK overlapping kinase (Homo sapiens) (UniProt Q9UQ07). Description: Inhibition of recombinant human MOK (1 to 343 residues) assessed as residual activity at 1 uM using RSRSRSRSRSRSRSR as substrate measured after 40 mins in presence of [gamma33P]ATP by scintillation counting method relative to control.
The target in test [13] is Serine/threonine-protein kinase Nek9 (Homo sapiens) (UniProt Q8TD19). Description: Inhibition of recombinant human NEK9 (1 to 324 residues) assessed as residual activity at 1 uM using myelin basic protein as substrate measured after 40 mins in presence of [gamma33P]ATP by scintillation counting method relative to control.
The target in test [14] is Insulin-like growth factor 1 receptor (Homo sapiens) (UniProt P08069). Description: Inhibition of human IGF1R (959 to end residues) assessed as residual activity at 1 uM using KKKSPGEYVNIEFG as substrate after 40 mins by [gamma-33ATP] radiometric assay relative to control.
Insulin-like growth factor 1 receptor (Homo sapiens), sequence (P08069 31-736 limits assumed): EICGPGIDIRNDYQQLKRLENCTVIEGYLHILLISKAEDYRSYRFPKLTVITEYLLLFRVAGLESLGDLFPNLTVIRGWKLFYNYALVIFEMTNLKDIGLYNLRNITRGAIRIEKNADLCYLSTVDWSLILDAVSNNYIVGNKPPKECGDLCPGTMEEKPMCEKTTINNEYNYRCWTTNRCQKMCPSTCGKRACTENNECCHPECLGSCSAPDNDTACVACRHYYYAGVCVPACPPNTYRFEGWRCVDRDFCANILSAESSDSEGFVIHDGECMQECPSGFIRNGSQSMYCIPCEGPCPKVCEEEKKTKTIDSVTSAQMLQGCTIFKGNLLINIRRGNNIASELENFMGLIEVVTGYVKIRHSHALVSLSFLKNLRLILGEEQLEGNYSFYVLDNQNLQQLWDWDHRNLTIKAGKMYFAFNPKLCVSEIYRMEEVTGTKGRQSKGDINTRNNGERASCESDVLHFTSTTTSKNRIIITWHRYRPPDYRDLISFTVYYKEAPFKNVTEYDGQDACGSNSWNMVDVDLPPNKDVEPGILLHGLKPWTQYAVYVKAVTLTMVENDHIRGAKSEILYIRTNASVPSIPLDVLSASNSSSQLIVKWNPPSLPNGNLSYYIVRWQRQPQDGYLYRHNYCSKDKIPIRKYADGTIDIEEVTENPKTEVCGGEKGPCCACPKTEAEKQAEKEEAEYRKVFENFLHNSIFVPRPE
Insulin-like growth factor 1 receptor (Homo sapiens), sequence (P08069 741-1367 limits assumed): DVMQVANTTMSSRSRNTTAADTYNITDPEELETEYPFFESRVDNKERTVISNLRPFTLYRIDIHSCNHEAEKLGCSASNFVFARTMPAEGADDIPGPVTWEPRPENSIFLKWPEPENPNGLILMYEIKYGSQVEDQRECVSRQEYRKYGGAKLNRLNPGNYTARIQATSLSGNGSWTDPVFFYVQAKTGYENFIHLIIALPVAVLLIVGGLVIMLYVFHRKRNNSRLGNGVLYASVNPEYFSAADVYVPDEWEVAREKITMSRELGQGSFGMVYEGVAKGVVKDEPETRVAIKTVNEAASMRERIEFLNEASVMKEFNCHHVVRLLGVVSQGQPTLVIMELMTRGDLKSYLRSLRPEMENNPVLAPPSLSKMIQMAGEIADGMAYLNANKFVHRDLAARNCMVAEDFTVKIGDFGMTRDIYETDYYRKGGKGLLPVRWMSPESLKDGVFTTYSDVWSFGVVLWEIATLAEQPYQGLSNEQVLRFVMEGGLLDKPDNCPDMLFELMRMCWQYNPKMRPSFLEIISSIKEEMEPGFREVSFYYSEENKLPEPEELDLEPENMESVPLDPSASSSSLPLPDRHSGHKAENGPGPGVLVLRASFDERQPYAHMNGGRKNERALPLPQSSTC
Test [15] has as its target Cyclin-dependent kinase 13/Cyclin-K (Homo sapiens) (UniProt Q14004+O75909). Description: Inhibition of recombinant full length human CDK13/cyclinK assessed as residual activity at 1 uM using RSRSRSRSRSRSRSR as substrate incubated for 120 mins in presence of [gamma-33ATP] by scintillation counting based radiometry assay relative to control. The class given is protein-complex assay.

In test [16] the target is Tyrosine-protein kinase CSK (Homo sapiens) (UniProt P41240). Description: Inhibition of recombinant human CSK assessed as residual activity at 1 uM poly(Glu, Tyr) 4:1 as substrate incubated 40 mins in presence of [gamma-33ATP] by scintillation counting based radiometry assay relative to control.
Test [17] deals with Mitogen-activated protein kinase 12 (Homo sapiens) (UniProt P53778). Description: Inhibition of recombinant human full length SAPK3 assessed as residual activity at 1 uM using myelin basic protein as substrate measured after 40 mins in presence of [gamma33P]ATP by scintillation counting method relative to control.
Mitogen-activated protein kinase 12 (Homo sapiens), sequence (P53778 whole entry, the tested form may be a part): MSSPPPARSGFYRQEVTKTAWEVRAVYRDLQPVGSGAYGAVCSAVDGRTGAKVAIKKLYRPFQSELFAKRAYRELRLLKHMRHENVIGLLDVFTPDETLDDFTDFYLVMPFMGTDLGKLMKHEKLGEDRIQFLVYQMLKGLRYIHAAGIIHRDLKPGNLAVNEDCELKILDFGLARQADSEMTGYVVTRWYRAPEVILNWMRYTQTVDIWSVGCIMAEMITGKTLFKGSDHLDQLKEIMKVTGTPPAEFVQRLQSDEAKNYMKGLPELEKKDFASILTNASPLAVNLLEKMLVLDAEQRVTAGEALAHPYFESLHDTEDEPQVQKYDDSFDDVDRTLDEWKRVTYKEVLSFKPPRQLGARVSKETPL
In test [18] the target is Fibroblast growth factor receptor 2 (Homo sapiens) (UniProt P21802). Description: Inhibition of recombinant human FGFR2 (456 to 770 residues) assessed as residual activity at 1 uM using poly(Glu, Tyr) 4:1 as substrate at 40 mins in presence of [gamma-33ATP] by scintillation counting based radiometry assay relative to control.
Fibroblast growth factor receptor 2 (Homo sapiens), sequence (P21802 22-821 limits assumed): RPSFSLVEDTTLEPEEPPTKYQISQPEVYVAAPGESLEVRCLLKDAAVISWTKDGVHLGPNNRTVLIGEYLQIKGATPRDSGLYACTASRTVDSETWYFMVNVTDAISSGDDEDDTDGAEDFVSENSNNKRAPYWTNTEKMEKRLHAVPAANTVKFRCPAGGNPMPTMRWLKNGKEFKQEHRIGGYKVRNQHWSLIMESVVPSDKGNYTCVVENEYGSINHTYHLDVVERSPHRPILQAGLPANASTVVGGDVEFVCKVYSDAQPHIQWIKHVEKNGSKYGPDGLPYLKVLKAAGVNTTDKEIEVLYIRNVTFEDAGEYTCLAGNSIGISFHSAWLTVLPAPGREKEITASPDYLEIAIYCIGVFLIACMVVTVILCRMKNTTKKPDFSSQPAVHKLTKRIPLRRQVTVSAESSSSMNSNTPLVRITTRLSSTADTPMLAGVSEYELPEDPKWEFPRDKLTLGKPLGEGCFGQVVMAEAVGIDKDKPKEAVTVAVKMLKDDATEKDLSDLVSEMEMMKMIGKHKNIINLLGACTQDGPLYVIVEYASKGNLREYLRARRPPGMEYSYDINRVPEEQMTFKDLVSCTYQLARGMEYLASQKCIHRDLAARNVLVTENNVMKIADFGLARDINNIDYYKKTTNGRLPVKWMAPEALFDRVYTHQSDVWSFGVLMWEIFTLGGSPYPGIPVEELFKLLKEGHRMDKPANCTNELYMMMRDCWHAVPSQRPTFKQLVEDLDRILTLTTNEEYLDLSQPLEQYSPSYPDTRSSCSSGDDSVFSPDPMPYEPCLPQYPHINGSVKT
The target in test [19] is Serine/threonine-protein kinase ULK3 (Homo sapiens) (UniProt Q6PHR2). Description: Inhibition of recombinant full-length human ULK3 at 1 uM assessed as residual activity at 1 uM using casein as substrate measured after 40 mins in presence of [gamma33P]ATP by scintillation counting method relative to control.
Serine/threonine-protein kinase ULK3 (Homo sapiens), sequence (Q6PHR2 whole entry): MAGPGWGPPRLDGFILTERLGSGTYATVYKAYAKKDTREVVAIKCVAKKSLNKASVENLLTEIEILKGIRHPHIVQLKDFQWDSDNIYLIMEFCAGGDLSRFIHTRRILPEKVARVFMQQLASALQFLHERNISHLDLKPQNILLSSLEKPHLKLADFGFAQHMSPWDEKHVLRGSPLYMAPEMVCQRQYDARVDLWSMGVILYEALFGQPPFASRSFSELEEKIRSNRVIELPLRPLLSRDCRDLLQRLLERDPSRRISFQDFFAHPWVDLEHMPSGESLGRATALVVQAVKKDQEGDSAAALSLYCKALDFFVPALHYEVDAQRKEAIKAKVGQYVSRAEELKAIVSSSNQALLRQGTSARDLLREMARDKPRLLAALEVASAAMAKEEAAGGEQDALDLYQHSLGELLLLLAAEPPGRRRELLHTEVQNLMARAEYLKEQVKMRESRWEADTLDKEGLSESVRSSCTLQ
The species named for another test is Homo sapiens. Description: Inhibition of recombinant human MARK1 V16E/T20S mutant (2 to end residues) assessed as residual activity at 1 uM using KKKVSRSGLYRSPSMPENLNRPR as substrate incubated for 40 mins in presence of [gamma-33ATP by scintillation counting based radiometry assay relative to control.
Test [20] deals with Serine/threonine-protein kinase Nek2 (Homo sapiens) (UniProt P51955). Description: Inhibition of recombinant full-length human NEK2 assessed as residual activity at 1 uM using myelin basic protein as substrate measured after 40 mins in presence of [gamma33P]ATP by scintillation counting based radiometry assay relative to control.

As for `N=C1NC(=O)/C(=C\c2ccc(-c3cccc([N+](=O)[O-])c3)o2)S1`, the Activity in test [1] worked out at 96%; in [2], 90%; in test [3], 101%; in test [4], 106%; in [5], 109%; in test [6], 93%. The Activity in test [7] worked out at 101%; in [8], 44%; in [9] it was 114%; in [10] it was 105%; in [11] it was 95%; in test [12], 101%. Moreover, the Activity came out at 103% in test [13]; 108% in test [14]; 102% in test [15]; 96% in test [16]; 97% in test [17]; 102% in test [18]. The Activity in [19] is 100%; in the test listed under Homo sapiens, 89%; in test [20], 95%.

Turning to `C=CCOC(=O)c1cc(-c2ccc(/C=C3/NC(=S)NC3=O)o2)ccc1Cl`, the Activity is 112% in test [1]; 77% in test [2]; 95% in [3]; 95% in test [4]; 105% in test [5]; 76% in test [6]. Further, the Activity in test [7] was 94%; in test [8] it was 33%; in test [9] it was 115%; in test [10] it was 114%; in [11], 95%; in test [12], 118%. For the same molecule, the Activity in [13] came out at 101%; in [14] it was 88%; in [15] it was 96%; in [16], 102%; in test [17], 94%; in test [18], 98%. Also, the Activity in test [19] came out at 99%; in the test filed under Homo sapiens, 91%; in test [20], 101%.
